Assay results: BindingDB's records for doi:10.1073/pnas.0805677105 (Burnham Institute For Medical Research, 2008)
pIC50: −log10 of the molar value.

Key:
[1] = target: T1, Mitogen-activated protein kinase 8 (Homo sapiens, UniProt P45983); test: DELFIA Assay (Dissociation Enhanced Lanthanide Fluoro-Immuno Assay); settings: pH 7.8
Experimental: Compound was evaluated for its ability to disrupt the interaction of pepJIP1 with JNK1 by using DELFIA assay. DELFIA is a heterogeneous assay whereby a biotin-linked pepJIP1 is adsorbed onto a streptavidin-coated plate followed by incubation with GST-JNK1. […] Controls include unlabeled peptide and blanks receiving no compounds.

[2] = target: T1, Mitogen-activated protein kinase 8; test: In Vitro Kinase Assay (LanthaScreen Kinase Assay); settings: pH 7.5; 22 °C

T1 sequence (P45983 whole entry): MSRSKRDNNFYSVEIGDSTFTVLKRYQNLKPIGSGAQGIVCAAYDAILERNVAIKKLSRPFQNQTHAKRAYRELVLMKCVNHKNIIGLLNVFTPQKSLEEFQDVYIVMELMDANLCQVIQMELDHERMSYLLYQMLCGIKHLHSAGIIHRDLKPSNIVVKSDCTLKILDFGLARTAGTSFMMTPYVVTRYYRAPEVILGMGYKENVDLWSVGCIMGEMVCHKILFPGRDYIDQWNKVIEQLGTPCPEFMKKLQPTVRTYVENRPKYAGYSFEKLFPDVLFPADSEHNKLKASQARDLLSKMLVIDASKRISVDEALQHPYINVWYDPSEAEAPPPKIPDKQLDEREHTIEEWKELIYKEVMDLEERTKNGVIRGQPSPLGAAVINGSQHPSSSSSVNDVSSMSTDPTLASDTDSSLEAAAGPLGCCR

Row | Compound | pIC50 [1] | pIC50 [2]
1 | Cc1nc(Sc2nnnn2-c2ccccc2)sc1C(=O)O [4-methyl-2-[(1-phenyl-1H-1,2,3,4-tetrazol-5-yl)sulfanyl]-1,3-thiazole-5-carboxylic acid] | 5.12 | < 4.00
2 | c1ccc(CSc2nnnn2-c2ccccc2)cc1 [5-(benzylsulfanyl)-1-phenyl-1H-1,2,3,4-tetrazole] | < 4.60 | < 4.00

Continued, values first:

Row | pIC50 [1] | pIC50 [2] | Compound
3 | < 4.60 | < 4.00 | O=c1[nH]nc(Sc2ccc([N+](=O)[O-])s2)n1-c1ccc2c(c1)OCCO2 [4-(2,3-dihydro-1,4-benzodioxin-6-yl)-5-[(5-nitrothiophen-2-yl)sulfanyl]-4H-1,2,4-triazol-3-ol]
4 | 6.63 | 5.51 | O=c1[nH]nc(Sc2ncc([N+](=O)[O-])s2)n1-c1ccccc1 [5-[(5-nitro-1,3-thiazol-2-yl)sulfanyl]-4-phenyl-4H-1,2,4-triazol-3-ol]
5 | 6.74 | 5.48 | O=[N+]([O-])c1cnc(Sc2nnnn2-c2ccccc2)s1 [5-nitro-2-[(1-phenyl-1H-1,2,3,4-tetrazol-5-yl)sulfanyl]-1,3-thiazole]
